Data: ChEMBL document CHEMBL3286390, “Lead optimization of 1,4-azaindoles as antimycobacterial agents” (J Med Chem, 2014)
Converted amounts (≈) assume the structure as drawn.

Assays:
[1] = Inhibition of Mycobacterium smegmatis thioredoxin 6xHis-tagged decaprenylphosphoryl-beta-D-ribose2'-epimerase 1 overexpressed in Escherichia coli rosetta cells using farnesyl-phosphoryl-beta-D-ribofuranose as substrate; set-up: species or system Mycolicibacterium smegmatis
[2] = system: Mycobacterium tuberculosis; type: functional, H37Rv ATCC 27294, THP-1
[3] = Octanol-water partition coefficient, log D of the compound at pH 7.4 by shake flask method; type: physicochemical
[4] = system: Mycobacterium tuberculosis; test: microbe, parasite or virus in culture; details: H37Rv ATCC 27294, 120 h
Description: Antimicrobial activity against Mycobacterium tuberculosis H37Rv ATCC 27294 assessed as growth inhibition after 5 days by microdilution method

Phosphodiesterase 6 = test: Inhibition of PDE6 (unknown origin); type: protein assay, Homo sapiens
[5] = Clearance in po dosed rat; type: ADME, organism-based; details: in vivo
Cytochrome P450 2C9 = Cytochrome P450 2C9 (Homo sapiens, UniProt P11712); test: Inhibition of human CYP2C9; type: ADME
[6] = Permeability across apical to basolateral side in human Caco2 cells; type: ADME, cell-based; details: Caco-2, read-out: permeability
Cytochrome P450 2C19 = Cytochrome P450 2C19 (Homo sapiens, UniProt P33261); test: Inhibition of human CYP2C19; type: ADME
Cytochrome P450 1A2 = target: T1, Cytochrome P450 1A2 (Homo sapiens, UniProt P05177); test: Inhibition of human CYP1A2; type: ADME
T1 sequence (P05177 whole entry): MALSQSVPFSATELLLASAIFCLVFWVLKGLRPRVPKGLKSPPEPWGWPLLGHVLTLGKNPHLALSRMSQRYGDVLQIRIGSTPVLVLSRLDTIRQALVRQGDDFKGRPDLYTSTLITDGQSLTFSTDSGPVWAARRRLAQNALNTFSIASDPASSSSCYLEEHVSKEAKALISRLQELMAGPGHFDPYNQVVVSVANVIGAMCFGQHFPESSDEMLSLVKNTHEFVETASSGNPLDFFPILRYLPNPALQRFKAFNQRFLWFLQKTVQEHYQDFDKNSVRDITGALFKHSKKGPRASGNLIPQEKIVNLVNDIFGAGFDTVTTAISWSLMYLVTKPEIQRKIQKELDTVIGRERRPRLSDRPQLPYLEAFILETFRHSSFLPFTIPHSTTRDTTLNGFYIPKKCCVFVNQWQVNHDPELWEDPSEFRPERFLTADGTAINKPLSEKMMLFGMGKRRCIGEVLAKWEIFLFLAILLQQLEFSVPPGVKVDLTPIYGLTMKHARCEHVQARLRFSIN

[7] = Intrinsic clearance in mouse liver microsomes; type: ADME; details: read-out: CLH
Cytochrome P450 3A4 = Cytochrome P450 3A4 (Homo sapiens, UniProt P08684); test: Inhibition of human CYP3A4; type: ADME
[8] = Aqueous solubility of the compound in phosphate buffer at pH 7.4 after 24 hrs by UV-MS analysis; type: physicochemical
[9] = Permeability across basolateral to apical side in human Caco2 cells; type: ADME, cell-based; details: Caco-2, read-out: permeability
[10] = Oral bioavailability in rat; type: ADME, organism-based; details: in vivo
Cytochrome P450 2D6 = Cytochrome P450 2D6 (Homo sapiens, UniProt P10635); test: Inhibition of human CYP2D6; type: ADME
[11] = Unbound fraction in human plasma; type: ADME, cell-free
[12] = AUC (infinity) in BALB/c mouse at 50 mg/kg, po administered as single dose; type: ADME, organism-based; set-up: dose 50 mg/kg, route oral, time infinity; details: plasma
[13] = Tmax in BALB/c mouse at 50 mg/kg, po administered as single dose; type: ADME, organism-based; set-up: dose 50 mg/kg, route oral; details: in vivo
[14] = Half life in BALB/c mouse at 50 mg/kg, po administered as single dose; type: ADME, organism-based; set-up: dose 50 mg/kg, route oral; details: in vivo
[15] = Cmax in BALB/c mouse at 50 mg/kg, po administered as single dose; type: ADME, organism-based; set-up: dose 50 mg/kg, route oral; details: in vivo
[16] = target: Voltage-gated inwardly rectifying potassium channel KCNH2 (Homo sapiens, UniProt Q12809)
[17] = Mycobacterium tuberculosis, H37Rv ATCC 27294, read-out: MIC

Chain of Cytochrome P450 2C9 (P11712 whole entry): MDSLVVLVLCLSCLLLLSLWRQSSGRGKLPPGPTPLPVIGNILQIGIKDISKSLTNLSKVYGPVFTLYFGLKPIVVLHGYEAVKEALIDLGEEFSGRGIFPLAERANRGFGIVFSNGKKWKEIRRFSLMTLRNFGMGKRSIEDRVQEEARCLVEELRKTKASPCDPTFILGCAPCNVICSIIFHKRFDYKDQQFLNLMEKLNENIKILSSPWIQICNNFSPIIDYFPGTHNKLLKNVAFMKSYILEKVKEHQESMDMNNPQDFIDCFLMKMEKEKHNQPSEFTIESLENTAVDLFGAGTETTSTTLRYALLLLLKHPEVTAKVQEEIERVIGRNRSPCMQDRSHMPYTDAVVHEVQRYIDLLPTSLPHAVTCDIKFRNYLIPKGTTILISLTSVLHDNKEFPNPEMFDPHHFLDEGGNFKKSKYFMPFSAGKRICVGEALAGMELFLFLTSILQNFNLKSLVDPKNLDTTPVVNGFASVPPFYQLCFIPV
Chain of Cytochrome P450 2C19 (P33261 whole entry): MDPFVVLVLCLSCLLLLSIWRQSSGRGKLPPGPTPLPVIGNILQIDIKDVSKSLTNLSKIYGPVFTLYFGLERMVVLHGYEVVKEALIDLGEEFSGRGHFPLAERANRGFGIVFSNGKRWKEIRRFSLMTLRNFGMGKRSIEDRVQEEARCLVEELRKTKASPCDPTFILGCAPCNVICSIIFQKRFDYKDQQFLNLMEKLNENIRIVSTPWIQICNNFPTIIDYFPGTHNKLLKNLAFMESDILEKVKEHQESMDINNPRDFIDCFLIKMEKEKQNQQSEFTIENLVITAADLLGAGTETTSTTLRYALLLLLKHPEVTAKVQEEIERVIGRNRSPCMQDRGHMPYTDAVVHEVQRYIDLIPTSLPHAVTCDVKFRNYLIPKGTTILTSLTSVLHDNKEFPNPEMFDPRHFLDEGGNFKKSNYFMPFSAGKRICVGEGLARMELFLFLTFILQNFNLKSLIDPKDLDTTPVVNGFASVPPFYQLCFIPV
Chain of Cytochrome P450 2D6 (P10635 whole entry): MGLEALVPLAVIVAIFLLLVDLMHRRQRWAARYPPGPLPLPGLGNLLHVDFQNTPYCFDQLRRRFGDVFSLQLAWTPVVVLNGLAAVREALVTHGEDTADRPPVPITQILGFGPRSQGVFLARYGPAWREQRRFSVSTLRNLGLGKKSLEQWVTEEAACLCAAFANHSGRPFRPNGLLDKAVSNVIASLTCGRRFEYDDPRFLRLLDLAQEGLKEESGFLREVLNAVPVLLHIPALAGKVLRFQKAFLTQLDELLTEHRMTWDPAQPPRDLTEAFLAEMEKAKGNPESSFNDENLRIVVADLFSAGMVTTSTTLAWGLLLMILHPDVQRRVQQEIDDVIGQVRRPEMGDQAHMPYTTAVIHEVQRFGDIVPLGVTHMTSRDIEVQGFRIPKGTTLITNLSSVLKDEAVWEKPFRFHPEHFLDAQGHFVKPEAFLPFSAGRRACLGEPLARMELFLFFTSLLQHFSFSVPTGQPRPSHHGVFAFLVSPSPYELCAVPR
Chain of Cytochrome P450 3A4 (P08684 whole entry): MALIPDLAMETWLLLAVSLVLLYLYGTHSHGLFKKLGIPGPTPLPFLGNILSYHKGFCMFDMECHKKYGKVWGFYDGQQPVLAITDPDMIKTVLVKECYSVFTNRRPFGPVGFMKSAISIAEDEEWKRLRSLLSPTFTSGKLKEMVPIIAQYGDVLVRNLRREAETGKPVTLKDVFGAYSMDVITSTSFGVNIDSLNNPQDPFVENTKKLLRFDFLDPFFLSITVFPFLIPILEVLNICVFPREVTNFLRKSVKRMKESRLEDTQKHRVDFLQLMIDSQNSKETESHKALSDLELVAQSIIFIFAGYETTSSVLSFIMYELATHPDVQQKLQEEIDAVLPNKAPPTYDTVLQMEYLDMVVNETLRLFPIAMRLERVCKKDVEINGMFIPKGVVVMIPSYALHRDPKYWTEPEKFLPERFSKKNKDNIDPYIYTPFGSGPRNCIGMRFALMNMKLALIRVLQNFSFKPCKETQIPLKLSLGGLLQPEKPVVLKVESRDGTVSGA
Chain of Voltage-gated inwardly rectifying potassium channel KCNH2 (Q12809 whole entry): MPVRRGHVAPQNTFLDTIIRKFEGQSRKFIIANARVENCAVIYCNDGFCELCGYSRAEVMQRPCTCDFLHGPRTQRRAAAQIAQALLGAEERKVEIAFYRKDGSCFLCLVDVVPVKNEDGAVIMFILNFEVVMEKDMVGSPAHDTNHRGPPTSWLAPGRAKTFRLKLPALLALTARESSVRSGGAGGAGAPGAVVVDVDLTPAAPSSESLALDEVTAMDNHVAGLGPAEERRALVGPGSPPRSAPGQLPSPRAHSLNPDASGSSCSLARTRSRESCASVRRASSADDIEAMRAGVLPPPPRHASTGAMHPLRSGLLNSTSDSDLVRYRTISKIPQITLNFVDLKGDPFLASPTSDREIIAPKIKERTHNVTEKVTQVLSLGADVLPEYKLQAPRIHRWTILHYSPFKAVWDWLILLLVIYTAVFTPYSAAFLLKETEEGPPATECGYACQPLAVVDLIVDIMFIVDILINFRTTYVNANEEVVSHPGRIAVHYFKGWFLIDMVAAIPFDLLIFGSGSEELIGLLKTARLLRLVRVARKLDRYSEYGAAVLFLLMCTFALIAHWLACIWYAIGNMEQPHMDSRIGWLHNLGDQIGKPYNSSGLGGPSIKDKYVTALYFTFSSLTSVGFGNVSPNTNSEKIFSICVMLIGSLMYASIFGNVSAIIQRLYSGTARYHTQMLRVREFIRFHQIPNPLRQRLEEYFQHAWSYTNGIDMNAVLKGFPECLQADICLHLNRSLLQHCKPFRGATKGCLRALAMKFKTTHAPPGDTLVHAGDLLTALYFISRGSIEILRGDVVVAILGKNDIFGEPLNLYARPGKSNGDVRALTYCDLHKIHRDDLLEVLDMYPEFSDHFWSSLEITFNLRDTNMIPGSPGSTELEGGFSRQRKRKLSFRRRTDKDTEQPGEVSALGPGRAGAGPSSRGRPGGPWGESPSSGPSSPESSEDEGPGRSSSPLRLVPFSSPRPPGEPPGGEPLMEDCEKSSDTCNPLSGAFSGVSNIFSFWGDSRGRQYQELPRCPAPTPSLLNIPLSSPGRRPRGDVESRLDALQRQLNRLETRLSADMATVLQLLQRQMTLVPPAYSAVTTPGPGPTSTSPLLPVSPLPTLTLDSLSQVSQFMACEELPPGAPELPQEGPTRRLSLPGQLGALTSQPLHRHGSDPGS

| Compound | IC50 [1] [nM] | MIC [2, 17] [µM] | logD [3] | IC50 (Phosphodiesterase 6) [µM] | also measured |
| --- | --- | --- | --- | --- | --- |
| COc1ncnc(Cn2cc(C(=O)NCCF)c3ncc(C(F)(F)F)cc32)c1C | 200 | > 200 | – | – | – |
| COc1cnc2c(C(=O)NCC(F)F)cn(Cc3ncnc(OC(F)F)c3C)c2c1 | 5 | < 0.39 | 2.4 | – | – |
| COc1ncc(C(F)(F)F)cc1Cn1cc(C(=O)NCCO)c2ncc(C)cc21 | 7 | 1.56 (≈ 0.637 µg/mL) | – | – | – |
| COc1c(N2C[C@@H]3CCCN[C@@H]3C2)c(F)cc2c(=O)c(C(=O)O)cn(C3CC3)c12 [MOXIFLOXACIN] | – | – | – | – | MIC [4]: 0.125 µM (≈ 0.0502 µg/mL) |
| COc1ncnc(Cn2cc(C(=O)NCCF)c3ncccc32)c1C | 10 | – | – | 9 | MIC [2]: 0.78 µM (≈ 0.268 µg/mL) |
| C[C@H]1COC2(CCN(c3nc(=O)c4cc(C(F)(F)F)cc([N+](=O)[O-])c4s3)CC2)O1 [BTZ-043] | – | – | – | – | MIC [4]: 0.0015 µM (≈ 0.000647 µg/mL) |
| Cc1cnc2c(C(=O)NCCO)cn(Cc3ncnc(OC(F)F)c3C)c2c1 | 21 | < 0.39 | 2 | > 100 | CL/F [5]: 48 mL/min/kg; IC50 (Cytochrome P450 2C9): > 50 µM; Papp A→B [6]: 13 ×10⁻⁶ cm/s; IC50 (Cytochrome P450 2C19): > 50 µM; IC50 (Cytochrome P450 1A2): > 50 µM; microsomal CLint [7]: 26 µL/min/mg; IC50 (Cytochrome P450 3A4): > 50 µM; MIC [4]: 0.78 µM (≈ 0.305 µg/mL); solubility at 24 h [8]: 68 µM (≈ 26.6 µg/mL); Papp B→A [9]: 23 ×10⁻⁶ cm/s; bioavailability [10]: 64%; IC50 (Cytochrome P450 2D6): > 50 µM; fraction unbound [11]: 0.3 |
| COc1ccc(F)cc1Cn1cc(C(=O)NCC2CC2)c2nccc(C)c21 | 12 | 6.25 (≈ 2.3 µg/mL) | – | – | – |
| Cc1c(Cn2cc(C(=O)NCCF)c3ncccc32)ncnc1N(C)C | 20 | – | – | > 100 | – |
| COc1ncc(F)cc1Cn1cc(C(=O)NC[C@H](C)F)c2ncc(C)cc21 | 4 | < 0.39 | – | > 100 | – |
| COc1ncnc(Cn2cc(C(=O)NCCO)c3ncc(C)cc32)c1C [TBA-7371] | 10 | – | – | – | CL/F [5]: 27 mL/min/kg; IC50 (Cytochrome P450 2C9): > 50 µM; AUC(0-inf) [12]: 62 µM·h; Tmax [13]: 15 min; IC50 (Cytochrome P450 2C19): > 50 µM; IC50 (Cytochrome P450 1A2): > 50 µM; half-life [14]: 42 min; Cmax [15]: 73 µM; IC50 (Cytochrome P450 3A4): > 50 µM; IC50 [16]: > 33 µM; bioavailability [10]: 100%; IC50 (Cytochrome P450 2D6): > 50 µM |
| Cc1cnc2c(C(=O)NCCF)cn(Cc3nccc(OCC(F)(F)F)c3C)c2c1 | 19 | 1.56 (≈ 0.662 µg/mL) | – | > 100 | – |
| COc1cnc2c(C(=O)NCC(F)F)cn(Cc3ncnc(OC)c3C)c2c1 | 9 | < 0.39 | 2.8 | – | microsomal CLint [7]: 106 µL/min/mg |
| COc1cnc2c(C(=O)NCC(F)F)cn(Cc3ncnc(N(C)C)c3C)c2c1 | 3 | < 0.39 | 2.5 | – | microsomal CLint [7]: > 130 µL/min/mg |
| Cc1cnc2c(C(=O)NCC(F)F)cn(Cc3ncc(C)nc3C)c2c1 | 15 | < 0.39 | 2.4 | – | – |
| COc1cnc2c(C(=O)NCCF)cn(Cc3ncnc(OC)c3C)c2c1 | 13 | < 0.39 | 2.5 | – | microsomal CLint [7]: 129 µL/min/mg |
